From patent publication US20250154240A1, “ANTI-HUMAN CXCL1 ANTIBODY” (CHIOME BIOSCIENCE INC., priority 2022, published 2025)

Key:
[1] = tested on: OCUM-12 gastric cancer cell line; assay: Antitumor activity test, model with OCUM-12 orthotopic transplantation (prevention model); format: in vivo, mouse; details: orally 100 mg/kg/day, once a day for 5 consecutive days followed by 2-day withdrawal
Procedure: A model with OCUM-12 orthotopic transplantation was prepared to evaluate the above 4 types of candidate antibodies for their in vivo CXCR2 migration inhibitory activity and antitumor activity in a xenograft model with OCUM-12 orthotopic transplantation.
For use as mice, female nude mice (BALB/cAJcl-nu/nu) at 5 to 6 weeks of age were purchased from CLEA Japan, Inc., Japan. For use as human cancer cells, a gastric cancer cell line, OCUM-12, was provided by University Public Corporation Osaka, Japan. […]
On the day following the above transplantation, the mice were randomized into groups (8 or 6 mice per group) and intraperitoneally administered with PBS as a control and with 4 types of candidate antibodies (1A-7H10, 4A-2F7, 5A-5E11 and 028-8-12) and 3 types of non-candidate antibodies (1A-3C6, 1A-2H3 and 4A-5B11) at a dose of 20 mg/kg. […] After 3 weeks had passed from the transplantation, the mice were sacrificed, and the short- and long-axis diameters of tumors formed in their gastric walls were each measured with a caliper. The tumor size was calculated according to the following: 1/2 short-axis diameter (mm)×1/2 long-axis diameter (mm)×3.14. […]
The humanized antibodies were evaluated for their in vivo antitumor activity and CXCR2 migration inhibitory activity in a xenograft model with OCUM-12 orthotopic transplantation. […]

CXCR2-expressing cells [2] = assay: In vivo migration inhibitory activity test on CXCR2-expressing cells, OCUM-12 orthotopic transplantation (prevention model); parameters: species or system mouse; details: navarixin orally 100 mg/kg/day, once a day for 5 consecutive days followed by 2-day withdrawal
Source text: The stomachs after measurement of the tumor size in [3-1] above were excised and fixed overnight at room temperature with a 10% neutral buffered formalin solution (Wako Pure Chemical Industries, Ltd., Japan), followed by replacement with PBS. Then, paraffin embedding and section preparation were outsourced to Applied Medical Research Laboratory, Japan. The prepared gastric tumor sections were immunohistologically stained with an anti-CXCR2 antibody to evaluate in vivo CXCR2 cell migration inhibitory activity. The sections were deparaffinized and rehydrated, and then treated to inactivate endogenous peroxidase. After antigen activation treatment, the sections were blocked with PBS containing 2% skimmed milk and 0.1% Tween-20, and reacted overnight at 4° C. with an anti-CXCR2 antibody (Biorbyt) as a primary antibody, which had been diluted to 0.3 μg/mL with the blocking solution. […]
Navarixin is among small molecular compounds that act on CXCR2 and inhibit CXCL1-CXCR2 signaling. […] Then, using a model with OCUM-12 orthotopic transplantation, the migration inhibition of CXCR2-expressing cells and antitumor activity were evaluated in vivo for Navarixin. […]
The dose-response relationship between antibody dose and in vivo antitumor activity or CXCR2 migration inhibitory activity was evaluated in a xenograft prevention model with OCUM-12 orthotopic transplantation. […]

CXCR2-expressing cells [3] = details: known; cited from earlier work

## CC[C@@H](Nc1c(Nc2cccc(C(=O)N(C)C)c2O)c(=O)c1=O)c1ccc(C)o1 [Navarixin, reference compound]
[1]
  Antitumor activity: no antitumor activity was observed
CXCR2-expressing cells [2]
  Migration of CXCR2-expressing cells in vivo: significantly inhibit the migration of CXCR2-expressing cells
CXCR2-expressing cells [3]
  Migration of CXCR2-expressing cells in vitro: known to inhibit the migration of CXCR2-expressing cells in vitro
